Where two headings read alike, the source gives them in different places.
Experiments:
PDE6 = PDE6 (Bos taurus, UniProt P11541+P23439); test: BioPrint panel: PDE6; type: biochemical
Method: General selectivity profiling was performed at Eurofins Pharma Discovery Services using the BioPrint® panel and reference database. The panel included 104 binding assays (non-peptide, peptide and nuclear receptors, ion channels and amine transporters) and 41 cell based and enzyme assays (including 10 kinases, 9 proteases and 5 phosphodiesterases) (S4 Table). More than 70% were human targets. Compound 4 was tested at a concentration of 1 μM in duplicate (10 μM for P-gp and CYP enzymes). The resulting bioactivity fingerprint was compared with a database of >2,500 BioPrint marketed drugs and reference compounds. IC50 values for selected activities were further characterized at 8 concentrations in duplicate.

DNA-PK = target: T1, DNA-PK (Homo sapiens, UniProt P78527); test: DNA-PK activity (SelectScreen); conditions: biochemical dose response, duplicate; read-out: Inhibition of indicated activity (IC50, μM): DNA-PK
T1 construct: Thermo Fisher Scientific SelectScreen (contract assay service)
Method: Kinase selectivity was evaluated at Eurofins Pharma Discovery Services using a selection of 125 representative kinases tested at a concentration of 10 μM in duplicate (S3 Table). IC50 values for selected activities were further characterized at 9 duplicate concentrations. DNA-PK activity was determined at the SelectScreen® Biochemical kinase Profiling Service of Thermo Fisher Scientific.

A3 = target: T2, A3 (Homo sapiens, UniProt P0DMS8); test: BioPrint panel: A3 (h) (agonist); type: binding; conditions: 1 micromolar, read-out: percentage of inhibition of activity
T2 construct: purchased Eurofins Pharma Discovery Services (KinaseProfiler; Cerep BioPrint panel)
Description: (§1) Supplement pone.0189247.s004.xlsx, sheet "Bioprint Selectivity Panel" | column: %

CB1 = target: T3, CB1 (Homo sapiens, UniProt P21554); test: BioPrint panel: CB1 (h) (agonist); type: binding; conditions: 1 micromolar, read-out: percentage of inhibition of activity
T3 construct: purchased Eurofins Pharma Discovery Services (KinaseProfiler; Cerep BioPrint panel)
Description: as §1

D3 = target: T4, D3 (Homo sapiens, UniProt P35462); test: BioPrint panel: D3 (h) (antagonist); type: binding; conditions: 1 micromolar, read-out: percentage of inhibition of activity
T4 construct: purchased Eurofins Pharma Discovery Services (KinaseProfiler; Cerep BioPrint panel)
Description: as §1

kainate = test: BioPrint panel: kainate (agonist); type: binding; conditions: 1 micromolar
Description: as §1

[1] = tested on: glycine (strychnine-insensitive); test: BioPrint panel: glycine (strychnine-insensitive)(antagonist); type: binding; conditions: 1 micromolar
Description: as §1

TNF-alpha = test: BioPrint panel: TNF-alpha (h) (agonist); type: binding, human; conditions: 1 micromolar
Description: as §1

H3 = target: T5, H3 (Homo sapiens, UniProt Q9Y5N1); test: BioPrint panel: H3 (h) (agonist); type: binding; conditions: 1 micromolar, read-out: percentage of inhibition of activity
T5 construct: purchased Eurofins Pharma Discovery Services (KinaseProfiler; Cerep BioPrint panel)
T5 sequence (Q9Y5N1 whole entry): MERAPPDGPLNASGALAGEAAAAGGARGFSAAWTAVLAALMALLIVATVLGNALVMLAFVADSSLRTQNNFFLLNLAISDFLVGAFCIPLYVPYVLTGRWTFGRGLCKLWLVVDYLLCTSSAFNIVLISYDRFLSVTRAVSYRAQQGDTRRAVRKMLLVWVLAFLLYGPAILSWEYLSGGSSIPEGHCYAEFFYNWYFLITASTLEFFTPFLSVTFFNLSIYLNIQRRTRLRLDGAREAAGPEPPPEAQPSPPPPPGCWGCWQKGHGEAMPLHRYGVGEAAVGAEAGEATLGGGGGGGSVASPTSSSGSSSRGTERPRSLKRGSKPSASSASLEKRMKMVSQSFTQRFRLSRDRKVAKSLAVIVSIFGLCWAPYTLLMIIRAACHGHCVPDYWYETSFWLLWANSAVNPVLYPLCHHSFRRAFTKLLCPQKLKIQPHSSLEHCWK
Description: as §1

MC1 = target: T6, MC1 (Mus musculus, UniProt Q01727); test: BioPrint panel: MC1 (agonist); type: binding; conditions: 1 micromolar, read-out: percentage of inhibition of activity
T6 construct: purchased Eurofins Pharma Discovery Services (KinaseProfiler; Cerep BioPrint panel)
Description: as §1

MC3 = target: T7, MC3 (Homo sapiens, UniProt P41968); test: BioPrint panel: MC3 (h) (agonist); type: binding; conditions: 1 micromolar, read-out: percentage of inhibition of activity
T7 construct: purchased Eurofins Pharma Discovery Services (KinaseProfiler; Cerep BioPrint panel)
Description: as §1

MT1 (ML1A) = target: T8, MT1 (ML1A) (Homo sapiens, UniProt P48039); test: BioPrint panel: MT1 (ML1A) (h) (agonist); type: binding; conditions: 1 micromolar, read-out: percentage of inhibition of activity
T8 construct: purchased Eurofins Pharma Discovery Services (KinaseProfiler; Cerep BioPrint panel)
T8 sequence (P48039 whole entry): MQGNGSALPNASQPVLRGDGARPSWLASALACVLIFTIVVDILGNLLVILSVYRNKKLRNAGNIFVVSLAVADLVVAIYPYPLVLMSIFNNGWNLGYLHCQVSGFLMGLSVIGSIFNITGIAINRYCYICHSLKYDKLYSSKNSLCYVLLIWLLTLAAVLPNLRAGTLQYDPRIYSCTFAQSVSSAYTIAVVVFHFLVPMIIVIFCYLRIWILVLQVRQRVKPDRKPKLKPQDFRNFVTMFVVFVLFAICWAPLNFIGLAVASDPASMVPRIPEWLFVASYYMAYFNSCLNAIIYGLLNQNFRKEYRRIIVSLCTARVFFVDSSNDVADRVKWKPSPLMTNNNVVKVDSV
Description: as §1

M3 = target: T9, M3 (Homo sapiens, UniProt P20309); test: BioPrint panel: M3 (h) (antagonist); type: binding; conditions: 1 micromolar, read-out: percentage of inhibition of activity
T9 construct: purchased Eurofins Pharma Discovery Services (KinaseProfiler; Cerep BioPrint panel)
T9 sequence (P20309 whole entry): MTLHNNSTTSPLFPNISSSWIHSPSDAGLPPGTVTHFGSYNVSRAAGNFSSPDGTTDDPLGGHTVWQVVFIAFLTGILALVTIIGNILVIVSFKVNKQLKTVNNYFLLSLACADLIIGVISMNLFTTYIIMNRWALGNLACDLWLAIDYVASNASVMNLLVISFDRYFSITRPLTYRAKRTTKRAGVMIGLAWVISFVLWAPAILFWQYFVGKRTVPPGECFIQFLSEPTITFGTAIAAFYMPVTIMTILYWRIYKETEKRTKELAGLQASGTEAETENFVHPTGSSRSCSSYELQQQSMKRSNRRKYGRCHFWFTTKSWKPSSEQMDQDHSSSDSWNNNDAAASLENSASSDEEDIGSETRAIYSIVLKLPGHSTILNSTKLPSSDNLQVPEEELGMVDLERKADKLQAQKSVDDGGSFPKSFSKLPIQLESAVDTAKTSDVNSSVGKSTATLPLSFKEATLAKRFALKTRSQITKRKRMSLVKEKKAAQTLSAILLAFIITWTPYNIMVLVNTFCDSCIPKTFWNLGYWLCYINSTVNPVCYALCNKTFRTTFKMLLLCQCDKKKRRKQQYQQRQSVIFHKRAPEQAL
Description: as §1

NK1 = target: T10, NK1 (Homo sapiens, UniProt P25103); test: BioPrint panel: NK1 (h) (agonist); type: binding; conditions: 1 micromolar, read-out: percentage of inhibition of activity
T10 construct: purchased Eurofins Pharma Discovery Services (KinaseProfiler; Cerep BioPrint panel)
Description: as §1

delta 2 (DOP) = target: T11, delta 2 (DOP) (Homo sapiens, UniProt P41143); test: BioPrint panel: delta 2 (DOP) (h) (agonist); type: binding; conditions: 1 micromolar, read-out: percentage of inhibition of activity
T11 construct: purchased Eurofins Pharma Discovery Services (KinaseProfiler; Cerep BioPrint panel)
Description: as §1

LXRbeta = target: T12, LXRbeta (Homo sapiens, UniProt P55055); test: BioPrint panel: LXRbeta (h) (agonist); type: binding; conditions: 1 micromolar, read-out: percentage of inhibition of activity
T12 construct: purchased Eurofins Pharma Discovery Services (KinaseProfiler; Cerep BioPrint panel)
T12 sequence (P55055 whole entry): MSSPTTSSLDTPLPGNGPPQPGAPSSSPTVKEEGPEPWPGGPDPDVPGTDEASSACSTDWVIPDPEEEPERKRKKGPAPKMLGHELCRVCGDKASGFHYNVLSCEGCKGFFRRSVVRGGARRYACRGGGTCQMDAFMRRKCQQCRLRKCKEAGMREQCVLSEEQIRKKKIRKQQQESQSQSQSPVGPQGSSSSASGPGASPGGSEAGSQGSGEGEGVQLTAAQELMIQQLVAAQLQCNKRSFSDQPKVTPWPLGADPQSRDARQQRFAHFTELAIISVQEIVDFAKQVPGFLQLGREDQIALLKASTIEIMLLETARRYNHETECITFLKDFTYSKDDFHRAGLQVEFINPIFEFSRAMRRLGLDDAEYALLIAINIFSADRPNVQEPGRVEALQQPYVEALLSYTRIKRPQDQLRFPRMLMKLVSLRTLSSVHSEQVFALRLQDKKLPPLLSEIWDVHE
Description: as §1

5-HT1D = target: T13, 5-HT1D (Rattus norvegicus, UniProt P28565); test: BioPrint panel: 5-HT1D (agonist); type: binding; conditions: 1 micromolar, read-out: percentage of inhibition of activity
T13 construct: purchased Eurofins Pharma Discovery Services (KinaseProfiler; Cerep BioPrint panel)
Description: as §1

5-HT4e = target: T14, 5-HT4e (Homo sapiens, UniProt Q13639); test: BioPrint panel: 5-HT4e (h) (antagonist); type: binding; conditions: 1 micromolar, read-out: percentage of inhibition of activity
T14 construct: purchased Eurofins Pharma Discovery Services (KinaseProfiler; Cerep BioPrint panel)
Description: as §1

sigma (non-selective) = test: BioPrint panel: sigma (non-selective) (h) (agonist); type: binding, human; conditions: 1 micromolar
Description: as §1

ERalpha = target: T15, ERalpha (Homo sapiens, UniProt P03372); test: BioPrint panel: ERalpha (h) (agonist fluoligand); type: binding; conditions: 1 micromolar, read-out: percentage of inhibition of activity
T15 construct: purchased Eurofins Pharma Discovery Services (KinaseProfiler; Cerep BioPrint panel)
Description: as §1

[2] = tested on: Ca2+ channel (L, dihydropyridine site); test: BioPrint panel: Ca2+ channel (L, dihydropyridine site) (antagonist); type: binding; conditions: 1 micromolar
Description: as §1

[3] = tested on: Ca2+ channel (L, diltiazem site); test: BioPrint panel: Ca2+ channel (L, diltiazem site)(antagonist); type: binding; conditions: 1 micromolar
Description: as §1

SKCa channel = test: BioPrint panel: SKCa channel (antagonist); type: binding; conditions: 1 micromolar
Description: as §1

Na+ channel (site 2) = test: BioPrint panel: Na+ channel (site 2) (antagonist); type: binding; conditions: 1 micromolar
Description: as §1

PDE3B = target: T16, PDE3B (Homo sapiens, UniProt Q13370); test: BioPrint panel: PDE3B (h); type: biochemical; conditions: 1 micromolar, read-out: percentage of inhibition of activity
T16 construct: purchased Eurofins Pharma Discovery Services (KinaseProfiler; Cerep BioPrint panel)
T16 sequence (Q13370 whole entry): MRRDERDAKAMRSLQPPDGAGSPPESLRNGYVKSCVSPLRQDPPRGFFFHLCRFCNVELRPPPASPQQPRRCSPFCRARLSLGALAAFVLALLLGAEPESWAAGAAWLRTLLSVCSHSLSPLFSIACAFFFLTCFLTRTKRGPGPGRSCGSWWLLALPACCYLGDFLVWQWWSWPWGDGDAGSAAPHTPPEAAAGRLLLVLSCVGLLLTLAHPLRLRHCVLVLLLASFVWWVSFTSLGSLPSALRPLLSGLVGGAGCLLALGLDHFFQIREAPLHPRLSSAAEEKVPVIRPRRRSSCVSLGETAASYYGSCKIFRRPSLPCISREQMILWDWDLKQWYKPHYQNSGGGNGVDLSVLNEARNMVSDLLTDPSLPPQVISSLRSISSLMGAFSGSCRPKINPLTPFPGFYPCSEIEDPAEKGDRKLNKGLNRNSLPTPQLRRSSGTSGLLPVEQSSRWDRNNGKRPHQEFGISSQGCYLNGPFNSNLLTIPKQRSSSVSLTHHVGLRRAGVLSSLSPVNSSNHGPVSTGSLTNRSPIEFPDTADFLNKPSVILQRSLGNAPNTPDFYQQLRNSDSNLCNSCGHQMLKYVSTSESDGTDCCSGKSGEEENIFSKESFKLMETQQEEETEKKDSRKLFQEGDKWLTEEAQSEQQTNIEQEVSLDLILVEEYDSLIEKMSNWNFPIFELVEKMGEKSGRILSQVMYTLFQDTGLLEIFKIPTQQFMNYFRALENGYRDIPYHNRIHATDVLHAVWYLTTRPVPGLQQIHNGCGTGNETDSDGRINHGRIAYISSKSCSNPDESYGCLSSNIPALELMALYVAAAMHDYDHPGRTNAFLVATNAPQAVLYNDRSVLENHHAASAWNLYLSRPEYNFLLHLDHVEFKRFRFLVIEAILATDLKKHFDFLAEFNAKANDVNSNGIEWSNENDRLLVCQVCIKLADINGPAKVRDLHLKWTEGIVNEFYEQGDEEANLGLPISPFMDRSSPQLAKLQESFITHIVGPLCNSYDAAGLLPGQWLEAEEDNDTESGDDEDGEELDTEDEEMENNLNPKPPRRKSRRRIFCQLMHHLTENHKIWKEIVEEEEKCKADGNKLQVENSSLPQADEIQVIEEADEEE
Description: as §1

ACE-2 = target: T17, ACE-2 (Homo sapiens, UniProt Q9BYF1); test: BioPrint panel: ACE-2 (h); type: biochemical; conditions: 1 micromolar
T17 construct: purchased Eurofins Pharma Discovery Services (KinaseProfiler; Cerep BioPrint panel)
Description: as §1

neutral endopeptidase = target: T18, neutral endopeptidase (Homo sapiens, UniProt P08473); test: BioPrint panel: neutral endopeptidase (h); type: biochemical; conditions: 1 micromolar, read-out: percentage of inhibition of activity
T18 construct: purchased Eurofins Pharma Discovery Services (KinaseProfiler; Cerep BioPrint panel)
Description: as §1

MMP-2 = target: T19, MMP-2 (Homo sapiens, UniProt P08253); test: BioPrint panel: MMP-2 (h); type: biochemical; conditions: 1 micromolar, read-out: percentage of inhibition of activity
T19 construct: purchased Eurofins Pharma Discovery Services (KinaseProfiler; Cerep BioPrint panel)
Description: as §1

ZAP-70 = target: T20, ZAP-70 (Homo sapiens, UniProt P43403); test: BioPrint panel: ZAP70 kinase (h); type: biochemical; conditions: 1 micromolar, read-out: percentage of inhibition of activity
T20 construct: purchased Eurofins Pharma Discovery Services (KinaseProfiler; Cerep BioPrint panel)
T20 sequence (P43403 1-619): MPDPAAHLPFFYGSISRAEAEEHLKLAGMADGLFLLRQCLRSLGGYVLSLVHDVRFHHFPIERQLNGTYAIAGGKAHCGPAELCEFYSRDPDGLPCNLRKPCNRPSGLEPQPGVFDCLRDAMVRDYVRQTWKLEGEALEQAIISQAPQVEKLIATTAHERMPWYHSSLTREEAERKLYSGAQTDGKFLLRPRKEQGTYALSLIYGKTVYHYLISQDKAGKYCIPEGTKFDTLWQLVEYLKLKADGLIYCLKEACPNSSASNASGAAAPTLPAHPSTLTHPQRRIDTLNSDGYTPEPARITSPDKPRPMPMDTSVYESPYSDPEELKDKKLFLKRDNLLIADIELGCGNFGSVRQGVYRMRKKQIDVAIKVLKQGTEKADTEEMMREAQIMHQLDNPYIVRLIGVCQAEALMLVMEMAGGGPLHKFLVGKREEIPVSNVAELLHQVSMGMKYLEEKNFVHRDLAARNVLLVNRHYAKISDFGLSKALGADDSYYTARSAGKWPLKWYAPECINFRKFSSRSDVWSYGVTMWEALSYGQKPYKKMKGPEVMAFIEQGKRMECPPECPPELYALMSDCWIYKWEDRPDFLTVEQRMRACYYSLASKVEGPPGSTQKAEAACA
Description: as §1

PDE6, sequence (P11541 2-856): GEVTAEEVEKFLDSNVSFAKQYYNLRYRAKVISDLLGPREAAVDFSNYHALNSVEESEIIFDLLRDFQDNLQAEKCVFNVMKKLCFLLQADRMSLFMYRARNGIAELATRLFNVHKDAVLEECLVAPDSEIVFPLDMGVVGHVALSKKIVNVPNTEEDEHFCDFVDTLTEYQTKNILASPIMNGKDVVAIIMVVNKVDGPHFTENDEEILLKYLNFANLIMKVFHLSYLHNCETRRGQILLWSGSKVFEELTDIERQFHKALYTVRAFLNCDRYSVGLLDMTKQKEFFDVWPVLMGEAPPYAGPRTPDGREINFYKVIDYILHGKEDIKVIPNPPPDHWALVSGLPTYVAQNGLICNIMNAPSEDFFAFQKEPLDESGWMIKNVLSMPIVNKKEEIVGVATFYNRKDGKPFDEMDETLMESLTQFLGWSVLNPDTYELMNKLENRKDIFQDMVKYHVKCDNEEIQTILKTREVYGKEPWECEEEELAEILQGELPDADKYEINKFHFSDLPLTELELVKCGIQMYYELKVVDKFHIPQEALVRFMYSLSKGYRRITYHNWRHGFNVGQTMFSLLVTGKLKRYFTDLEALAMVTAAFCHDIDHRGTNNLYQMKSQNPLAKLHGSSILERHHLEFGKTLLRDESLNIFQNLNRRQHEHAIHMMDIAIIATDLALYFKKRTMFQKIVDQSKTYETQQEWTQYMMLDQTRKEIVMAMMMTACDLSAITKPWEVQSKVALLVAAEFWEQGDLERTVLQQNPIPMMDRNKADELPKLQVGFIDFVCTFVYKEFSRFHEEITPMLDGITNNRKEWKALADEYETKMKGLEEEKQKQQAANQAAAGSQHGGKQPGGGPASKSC
PDE6, sequence (P23439 2-850): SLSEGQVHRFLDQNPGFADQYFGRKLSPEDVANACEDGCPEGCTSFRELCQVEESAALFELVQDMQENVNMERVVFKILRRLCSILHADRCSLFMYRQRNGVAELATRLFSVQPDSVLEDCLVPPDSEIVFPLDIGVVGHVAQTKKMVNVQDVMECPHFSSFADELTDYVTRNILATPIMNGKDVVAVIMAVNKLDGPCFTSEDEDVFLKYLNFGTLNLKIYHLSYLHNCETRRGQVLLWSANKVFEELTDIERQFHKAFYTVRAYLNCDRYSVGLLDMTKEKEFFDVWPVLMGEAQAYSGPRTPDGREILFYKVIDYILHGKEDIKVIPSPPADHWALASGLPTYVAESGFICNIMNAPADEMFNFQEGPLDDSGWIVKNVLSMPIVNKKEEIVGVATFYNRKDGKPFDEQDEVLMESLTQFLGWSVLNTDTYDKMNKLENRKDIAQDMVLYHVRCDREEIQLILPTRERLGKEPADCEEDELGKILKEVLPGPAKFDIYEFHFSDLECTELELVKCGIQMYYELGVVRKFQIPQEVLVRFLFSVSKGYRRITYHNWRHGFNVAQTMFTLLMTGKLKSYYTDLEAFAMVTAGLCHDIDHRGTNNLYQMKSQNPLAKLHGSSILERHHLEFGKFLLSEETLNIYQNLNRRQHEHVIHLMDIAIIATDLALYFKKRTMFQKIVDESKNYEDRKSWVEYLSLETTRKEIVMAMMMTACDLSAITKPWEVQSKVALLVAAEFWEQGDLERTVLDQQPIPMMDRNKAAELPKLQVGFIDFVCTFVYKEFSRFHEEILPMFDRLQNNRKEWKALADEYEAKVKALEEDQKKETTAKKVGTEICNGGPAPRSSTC
PDE6, sequence (P04972 whole entry partner): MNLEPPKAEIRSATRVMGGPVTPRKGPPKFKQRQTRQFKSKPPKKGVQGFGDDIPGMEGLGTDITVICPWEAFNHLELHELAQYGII

`Cn1cc(-c2cccc(-c3nc(C(=O)NC4C5CC6CC4CC(O)(C6)C5)c(N)nc3N)c2)cn1` (stereo not drawn) [compound 4] showed an inhibition at 1 µM (PDE6; 1 μM, read-out: inhibition of PDE6) of 55%, an inhibition at 1 µM (PDE6; 1 micromolar, PDE6 (non-selective), read-out: percentage of inhibition of activity) of 55.6% and an IC50 (DNA-PK) of 0.348 µM. It also gave an inhibition at 1 µM (A3) of 3.5%, an inhibition at 1 µM (CB1) of 3.7% and an inhibition at 1 µM (D3) of -4.2%. For the same compound, the “percentage of inhibition of activity” value (kainate) was 4.1%, the “percentage of inhibition of activity” value [1] was -5.3% and the “percentage of inhibition of activity” value (TNF-alpha) was -2.1%. It also gave an inhibition at 1 µM (H3) of 7.4%, an inhibition at 1 µM (MC1) of -2.3% and an inhibition at 1 µM (MC3) of 8.8%. For the same compound, the inhibition at 1 µM (MT1 (ML1A)) was 4.2%, the inhibition at 1 µM (M3) was -0.3% and the inhibition at 1 µM (NK1) was 11.6%. The inhibition at 1 µM (delta 2 (DOP)) was -0.2%, the inhibition at 1 µM (LXRbeta) was 4.1% and the inhibition at 1 µM (5-HT1D) was -8.1%. The inhibition at 1 µM (5-HT4e) was 3.8%, the “percentage of inhibition of activity” value (sigma (non-selective)) was 5.9% and the inhibition at 1 µM (ERalpha) was -10.3%. The “percentage of inhibition of activity” value [2] was -3.5%, the “percentage of inhibition of activity” value [3] was -22.4% and the “percentage of inhibition of activity” value (SKCa channel) was -10.2%. For the same compound, the “percentage of inhibition of activity” value (Na+ channel (site 2)) was 29.7%, the inhibition at 1 µM (PDE3B) was 5.8% and the “percentage of inhibition of activity” value (ACE-2) was “INTER”. It also gave an inhibition at 1 µM (neutral endopeptidase) of 15.6%, an inhibition at 1 µM (MMP-2) of 13.6% and an inhibition at 1 µM (ZAP-70) of 5.5%.
